# Source: PubChem BioAssay AID588568 (The Scripps Research Institute Molecular Screening Center, 2011)
# Values joined by “and” are separate entries in the source; they are usually repeats but may differ in a detail not shown here. Identical values can stand only once. Active and inactive are the calls of the source. How the calls were made is not given here.
# Biological target: Melanin-concentrating hormone receptor 1 (Homo sapiens) (UniProt Q99705)
# Assay: MCHR1 antagonists, dose response, counter-screen for GPR7 antagonist project, cell-based, fluorescence, set 4 (AID 588568)
# Settings: MCHR1-expressing cells, fluorescence antagonist assay; run 1
row,Compound,IC50
1,COc1ccc(Oc2c(C#N)cnn(-c3ccc(Br)cc3)c2=O)cc1,inactive
2,CC(C)c1ccc(-n2ncc(Cl)c(Oc3ccc(CO)cc3)c2=O)cc1,4.73 µM
3,COc1ccc(Oc2c(Cl)cnn(Cc3ccc(C)c4ccccc34)c2=O)cc1,inactive
4,COc1ccc(Oc2c(Cl)cnn(Cc3ccc(Cl)c(C)c3)c2=O)cc1,inactive
5,COc1ccc(Oc2c(Cl)cnn(C(c3ccccc3)c3ccccc3C)c2=O)cc1 (stereo unspecified),inactive
6,COc1ccc(Oc2c(Cl)cnn(-c3ccccc3)c2=O)cc1,inactive
7,COc1ccc(Oc2c(Cl)cnn(C3=Nc4ccccc4Oc4ccccc43)c2=O)cc1,2.68 µM
8,COc1ccc(Oc2c(Cl)cnn(CC3CCCC3)c2=O)cc1,inactive
9,COCn1ncc(Cl)c(Oc2ccc(OC)cc2)c1=O,> 20 µM (inactive)
10,COc1ccc(Oc2c(Cl)cnn(C3=Nc4cc(Cl)ccc4Oc4ccccc43)c2=O)cc1,1.11 µM
11,CCCCCCCn1ncc(Cl)c(Oc2ccc(OC)cc2)c1=O,inactive
12,COc1ccc(Oc2c(Cl)cnn(CC(=O)c3ccc(C)cc3C)c2=O)cc1,2.64 µM
13,COc1ccc(Oc2c(Cl)cnn(Cc3ccc(C4CCCCC4)c4ccccc34)c2=O)cc1,> 20 µM (inactive)
14,CCN(CC)C(=O)C(c1ccccc1Cl)n1ncc(Cl)c(Oc2ccc(OC)cc2)c1=O (stereo unspecified),> 11.5 µM (inactive)
15,CC(C)Oc1ccc(Oc2c(Cl)cnn(Cc3cccc4ccccc34)c2=O)cc1,inactive
16,COc1ccc(Oc2ccn(-c3ccc(C)cc3)c(=O)c2Cl)cc1,2.79 µM
17,COc1ccc(Oc2c(Cl)cnn(-c3ccc(F)cc3)c2=O)cc1,7.84 µM
18,COc1ccc(Cn2ncc(Cl)c(Oc3ccc(OC)cc3)c2=O)cc1,inactive
19,COc1ccc(Oc2cnn(Cc3cccc4ccccc34)c(=O)c2Br)cc1,> 20 µM (inactive)
20,COc1ccc(Oc2c(Cl)cnn(C3=Nc4ccccc4Sc4ccccc43)c2=O)cc1,> 20 µM (inactive)
21,COc1ccc(Oc2c(Cl)cnn(-c3ccc(-c4ccccc4)cc3)c2=O)cc1,7.26 µM and 4.63 µM
22,COC(=O)c1ccc(Oc2c(Cl)cnn(Cc3cccc4ccccc34)c2=O)cc1,> 20 µM (inactive)
23,COc1ccc(Oc2c(OC)nn(-c3cccc(C)c3)c(=O)c2Oc2ccc(OC)cc2)cc1,inactive
24,COc1ccc(Oc2c(Cl)cnn(Cc3cccc(C(F)(F)F)c3)c2=O)cc1,4.7 µM
25,COc1ccc(Oc2c(Cl)cnn(C(CO)c3ccccc3)c2=O)cc1 (stereo unspecified),inactive

row,Compound,IC50
1,COc1ccc(Oc2c(Cl)cnn(-c3ccc4ccccc4c3)c2=O)cc1,0.438 µM
2,CCOC(=O)C(c1ccccc1Cl)n1ncc(Cl)c(Oc2ccc(OC)cc2)c1=O (stereo unspecified),3.26 µM
3,O=c1c(Oc2ccc(CCl)cc2)c(Cl)cnn1Cc1cccc2ccccc12,7.92 µM
4,COc1ccc(Oc2c(Cl)c(-c3ccccc3C)nn(Cc3ccccc3C)c2=O)cc1,1.79 µM
5,Cc1cc(C)cc(Cn2ncc(Cl)c(Oc3ccc(CO)cc3)c2=O)c1,3.02 µM
6,COc1ccc(Oc2c(Cl)cnn(Cc3c(OC)ccc4ccccc34)c2=O)cc1,6.18 µM
7,COc1ccc(Oc2c(Cl)cnn(C(c3ccccc3)c3c(C)noc3C)c2=O)cc1 (stereo unspecified),> 20 µM (inactive)
8,COc1ccc(Oc2c(Cl)cnn(-c3ccc(Cl)cc3)c2=O)cc1,inactive
9,CCCC(=O)OCC(c1cccc2ccccc12)n1ncc(Cl)c(Oc2ccc(OC)cc2)c1=O (stereo unspecified),> 20 µM (inactive)
10,COc1ccc(Oc2c(Cl)c(-c3ccsc3)nn(Cc3ccccc3C)c2=O)cc1,8.04 µM
11,O=c1c(Oc2ccc(OC(F)(F)F)cc2)c(Cl)cnn1C1c2ccccc2-c2ccccc21,> 20 µM (inactive)
12,COc1ccc(Oc2c(C)c(C)nn(Cc3ccccc3C)c2=O)cc1,7.31 µM
13,COc1ccc(Oc2c(Cl)cnn(C(CO)c3cccc4ccccc34)c2=O)cc1 (stereo unspecified),9.05 µM
14,COc1ccc(Oc2c(Cl)cnn(-c3ccc(C4=CCCCC4)cc3)c2=O)cc1,5.13 µM
15,COc1ccc(Oc2c(Cl)c(-c3ccc(C)cc3)nn(Cc3ccccc3C)c2=O)cc1,6.43 µM
16,C=Cc1cnn(Cc2cccc3ccccc23)c(=O)c1Oc1ccc(OC)cc1,1.69 µM
17,O=C(c1cnn(-c2ccc(Cl)cc2)c1C(F)(F)F)N1CCN(c2ccc([N+](=O)[O-])cc2)CC1,1.64 µM
18,Cc1ccc(CN2CCCCC2C(=O)N2CCN(c3ccc([N+](=O)[O-])cc3)CC2)cc1C (stereo unspecified),3.3 µM
19,COc1ccc(Oc2c(Cl)c(-c3ccc(C(F)(F)F)cc3)nn(Cc3ccccc3C)c2=O)cc1,inactive
20,COc1ccc(Oc2c(Cl)cnn(CCc3cccc4ccccc34)c2=O)cc1,inactive
21,COc1ccc(Oc2c(C)cnn(Cc3cccc4ccccc34)c2=O)cc1,5.41 µM
22,Cc1cccc(Cn2ncc(Oc3ccc(CO)cc3)c(Cl)c2=O)c1,5.16 µM
23,COc1ccc(Oc2c(Cl)cnn(Cc3ccc(F)c4ccccc34)c2=O)cc1,2.49 µM
24,COc1ccc(Oc2c(Cl)cnn(-c3ccc(C(F)(F)F)cc3)c2=O)cc1,9.6 µM
25,COc1ccc(Oc2c(-c3ccc(C)cc3)c(-c3ccc(C)cc3)nn(Cc3ccccc3C)c2=O)cc1,> 20 µM (inactive)

row,Compound,IC50
1,COc1ccc(Oc2c(Cl)cnn(-c3ccc(-c4ccc(C)cc4)cc3)c2=O)cc1,> 20 µM (inactive)
2,O=c1c(Oc2ccc(CO)cc2)c(Cl)cnn1Cc1ccc2ccccc2c1,2.23 µM
3,COc1ccc(Oc2c(Cl)cnn(-c3cccc(Br)c3)c2=O)cc1,2.92 µM
4,CCOc1ccc(Oc2c(NC(=O)OC(C)(C)C)cnn(Cc3cccc4ccccc34)c2=O)cc1,> 20 µM (inactive)
5,COc1ccc(Oc2c(Cl)c(C)nn(Cc3ccccc3C)c2=O)cc1,3.89 µM
6,COc1ccc(Oc2c(-c3ccccc3C)c(-c3ccccc3C)nn(Cc3ccccc3C)c2=O)cc1,inactive
7,COc1ccc(Oc2c(Cl)cnn(-c3ccc(Br)cc3)c2=O)cc1,6.4 µM
8,CCc1cccc(-n2ncc(Cl)c(Oc3ccc(OC)cc3)c2=O)c1,2.31 µM
9,COc1ccc(Oc2c(Cl)cnn(Cc3ccc(C)c(C)c3)c2=O)cc1,5.1 µM
10,COc1ccc(Oc2c(Cl)cnn(-c3nc4ccccc4c4ccccc34)c2=O)cc1,> 20 µM (inactive)
11,CCCCOC(=O)C(c1ccccc1Cl)n1ncc(Cl)c(Oc2ccc(OC)cc2)c1=O (stereo unspecified),inactive
12,COc1ccc(Oc2c(Cl)cnn(Cc3ccc(-c4ccccc4)cc3)c2=O)cc1,> 20 µM (inactive)
13,COc1ccc(Oc2c(Cl)cnn(Cc3c(Cl)cccc3Cl)c2=O)cc1,7.65 µM
14,COc1ccc(Oc2c(Cl)cnn(Cc3ccc(F)cc3Cl)c2=O)cc1,4.16 µM
15,COc1ccc(Oc2c(Cl)c(Br)nn(Cc3ccccc3C)c2=O)cc1,1.79 µM
16,CC(C)c1ccc(-n2ncc(Cl)c(Oc3ccc(O)cc3)c2=O)cc1,> 20 µM (inactive)
17,COc1ccc(Oc2c(Cl)cnn(C(C(=O)OC(C)C)c3ccccc3Cl)c2=O)cc1 (stereo unspecified),> 11.5 µM (inactive)
18,COc1ccc(Oc2c(/C=N\O)cnn(Cc3cccc4ccccc34)c2=O)cc1,inactive
19,COc1ccc(Oc2c(C#N)cnn(Cc3ccccc3C)c2=O)cc1,> 20 µM (inactive)
20,COc1ccc(Oc2c(Cl)cnn(Cc3c(C)cc(C)cc3C)c2=O)cc1,7.5 µM
21,COCc1ccc(Oc2c(Cl)cnn(Cc3cccc4ccccc34)c2=O)cc1,> 20 µM (inactive)
22,CC(C)c1ccc(Oc2c(Cl)cnn(Cc3cccc4ccccc34)c2=O)cc1,8.08 µM
23,COc1cccc(Oc2c(Cl)cnn(Cc3cccc4ccccc34)c2=O)c1,8.9 µM
24,Cc1cc(C)cc(-n2ncc(Cl)c(Oc3ccc(-c4ccccc4)cc3)c2=O)c1,8.03 µM
25,COc1ccc(Oc2c(Cl)c(OC)nn(-c3cccc(C)c3)c2=O)cc1,8.55 µM

row,Compound,IC50
1,COc1ccc(Oc2c(Cl)c(-c3ccc(OC)cc3)nn(Cc3ccccc3C)c2=O)cc1,> 20 µM (inactive)
2,C=Cc1ccc(Cn2ncc(Cl)c(Oc3ccc(OC)cc3)c2=O)cc1,9.05 µM
3,Cc1cc(CN2CCCCC2C(=O)N2CCN(c3ccc([N+](=O)[O-])cc3)CC2)ccc1Cl (stereo unspecified),1.42 µM
4,COc1ccc(Oc2c(Cl)cnn(Cc3ccc(C(F)(F)F)cc3)c2=O)cc1,1.78 µM
5,COc1ccc(Oc2c(Cl)cnn(Cc3cc(Cl)ccc3Cl)c2=O)cc1,4.29 µM
6,COc1ccc(Oc2c(Cl)cnn(CC3CCCCC3)c2=O)cc1,inactive
7,CCOc1ccc(Cn2ncc(Cl)c(Oc3ccc(OC)cc3)c2=O)cc1C#N,9.37 µM
8,COc1ccc(Oc2c(Cl)cnn(Cc3ccc(Cl)cc3Cl)c2=O)cc1,1.45 µM
9,CCc1ccc(Oc2c(Cl)cnn(C3c4ccccc4-c4ccccc43)c2=O)cc1,> 20 µM (inactive)
10,COc1ccccc1CNC(=O)c1cnn(-c2ccc(Cl)cc2)c1C(F)(F)F,7.23 µM
11,O=C(C1CCCN1Cc1ccc(Cl)c(Cl)c1)N1CCN(c2ccc([N+](=O)[O-])cc2)CC1 (stereo unspecified),2.13 µM
12,COc1ccc(Oc2c(Cl)cnn(Cc3ccc(Br)c4ccccc34)c2=O)cc1,> 20 µM (inactive)
13,COc1ccc(Nc2ccnn(Cc3cccc4ccccc34)c2=O)cc1,> 20 µM (inactive)
14,COc1ccc(Oc2c(Cl)cnn(Cc3cccc(C)c3)c2=O)cc1,4.7 µM
15,O=Cc1ccc(Oc2c(Cl)cnn(Cc3cccc4ccccc34)c2=O)cc1,7.33 µM
16,COc1ccc(Oc2c(-c3ccsc3)c(-c3ccsc3)nn(Cc3ccccc3C)c2=O)cc1,> 20 µM (inactive)
17,COc1ccc(Oc2c(Cl)c(C3=CCCCC3)nn(Cc3ccccc3C)c2=O)cc1,3.57 µM
18,Cc1cc(C)cc(Cn2[nH]cc(Oc3ccc(CO)cc3)c(=O)c2=O)c1,2.32 µM
19,COc1ccc(Oc2c(Cl)cnn(Cc3ccc(Cl)cc3)c2=O)cc1,3.2 µM
20,Cc1cc(C)cc(-n2ncc(Cl)c(Oc3ccc(CO)cc3)c2=O)c1,2.25 µM
21,O=c1c(Oc2ccc(CO)cc2)c(Cl)cnn1Cc1cccc2ccccc12,6.75 µM
22,COc1ccc(Oc2c(Cl)cnn(Cc3ccc(C(C)C)cc3)c2=O)cc1,> 20 µM (inactive)
23,O=C(O)c1ccc(Oc2c(Cl)cnn(Cc3cccc4ccccc34)c2=O)cc1,> 20 µM (inactive)

# Same assay, conditions: MCHR1-expressing cells, fluorescence antagonist assay; run 1; at 20 µM (top of the series)
row,Compound,inhibition
1,CCOc1ccc(Oc2c(N3CCCCC3)cnn(Cc3cccc4ccccc34)c2=O)cc1,inactive
2,COc1ccc(Oc2c(Cl)cnn(CC3CCC3)c2=O)cc1,inactive

# Same assay, conditions: MCHR1-expressing cells, fluorescence antagonist assay; run 2
row,Compound,IC50 [µM]
1,COc1ccc(Oc2c(Cl)cnn(-c3ccc(C(F)(F)F)cc3)c2=O)cc1,9.81
